Source: PMC9604401 (International Journal of Molecular Sciences, 2022)
Like-named read-outs stand apart in the source and are kept apart here.

What was measured:
SARS-CoV-1 nsp1 = SARS-CoV-1 nsp1 (Severe acute respiratory syndrome coronavirus, UniProt P0C6X7); assay: biochemical; type: binding
SARS-CoV-2 nsp1_10-126 [1] = biological target: T1, SARS-CoV-2 nsp1_10-126 (Severe acute respiratory syndrome coronavirus 2, UniProt P0DTD1); assay: Thermal shift assay (TSA) by nanoDSF; type: binding; details: 4 mM fragment; for TSA effect on unfolding of the protein, in words / TSA Ti ± SD: 2.0% DMSO; for TSA Ti ± SD: nanoDSF, 1.25 mg/mL protein, n = 3, APUC = atypical protein unfolding curve; for TSA |ΔTi|-3SD: > 0 regarded as statistically significant; for TSA ΔTi: Ti (protein-fragment) − Ti (protein-DMSO), control Ti 54.05 °C in 2.0% DMSO
Text: For TSA, nsp1 in the presence of an equal concentration of DMSO was used as a control to offset the influence of DMSO on the protein. The averaged change of inflection temperature (△Ti) of the protein in the presence of fragments higher than three-fold of standard deviation (|△Ti|-3*SD > 0) was regarded as statistically significant. […] In this regard, TSA may not be suitable yet for the validation of hits against SARS-CoV-2 nsp1_10-126, as we have recently also observed for another SARS-CoV-2 protein, nsp10 [41]. With respect to physicochemical properties, calculated values for fragments are well within the expected range, indicating good starting points for structure-based drug design.
The protein concentration used in this assay was determined by analysing the unfolding curves of SARS-CoV-2 nsp1_10-126 at different concentrations in the presence of 2% DMSO. Fragments dissolved in DMSO (200 mM stocks) were diluted in buffer E supplied with 0.05% Pluronic® F-127 and mixed with nsp1_10-126. The final concentration of fragments was 4 mM containing 2.0% DMSO, while the final protein concentration was 1.25 mg/mL. After centrifugation for 5 min at 6000 rpm, the samples were loaded into Tycho NT.6 capillaries (TY-C001, NanoTemper, München, Germany) with 1.25 mg/mL SARS-CoV-2 nsp1_10-126 in the presence of 2% DMSO as control and measured by the Tycho NT.6 instrument (NanoTemper, München, Germany) in triplicate. The resulting Ti values are presented as means ± SD (n = 3) and the △Ti values for each sample were calculated with the following equation. △Ti = Ti (protein-fragment) − Ti (protein-DMSO)

SARS-CoV-2 nsp1_10-126 [2] = biological target: T1, SARS-CoV-2 nsp1_10-126; assay: Microscale thermophoresis (MST) binding affinity
MERS nsp1 = MERS nsp1 (Middle East respiratory syndrome-related coronavirus, UniProt K9N7C7); assay: biochemical; type: binding
Sequence of MERS nsp1 (K9N7C7 2-193 limits assumed): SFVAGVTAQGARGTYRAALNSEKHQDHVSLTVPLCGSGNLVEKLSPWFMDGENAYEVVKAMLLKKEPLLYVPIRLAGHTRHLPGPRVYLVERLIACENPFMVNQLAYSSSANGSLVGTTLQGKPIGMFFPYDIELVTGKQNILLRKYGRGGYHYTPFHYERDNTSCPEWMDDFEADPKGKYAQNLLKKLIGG

SMILES	Kd (SARS-CoV-1 nsp1) [mM]	TSA effect on unfolding of the protein, in words (SARS-CoV-2 nsp1_10-126 [1])	TSA Ti ± SD (SARS-CoV-2 nsp1_10-126 [1])	Kd (SARS-CoV-2 nsp1_10-126 [2]) [mM]	Kd (MERS nsp1) [mM]	TSA |ΔTi|-3SD (SARS-CoV-2 nsp1_10-126 [1]) [°C]	TSA ΔTi (SARS-CoV-2 nsp1_10-126 [1]) [°C]	Cross-binding to SARS-CoV-1 nsp1 by MST, in words (SARS-CoV-1 nsp1)	SARS-CoV-1 nsp1 MST, Kd (SARS-CoV-1 nsp1)	Kd (SARS-CoV-2 nsp1_10-126 [2]; read-out: SARS-CoV-2 nsp1 MST, Kd) [mM]	MERS nsp1 MST, Kd (MERS nsp1)	Cross-binding to MERS nsp1 by MST, in words (MERS nsp1)
CNCc1ccc(-c2cccs2)cc1 [Fragment 5E11]	12.8 ± 24.1	atypical unfolding curves	APUC	0.48 ± 0.3	> 20							
OCCNCc1ccccc1 [Fragment 8E6]	> 20	Destabilisation effects	52.72 ± 0.22 °C	8.32 ± 3.32	> 20	0.67	−1.33					
C[C@H](N)c1ccc(Cl)cc1 [Fragment 7H2]		Destabilisation effects	53.55 ± 0.25 °C	> 20			−0.50	no binding	n.i.	> 20	n.i	
CNCc1csc(-c2cccc(Cl)c2)n1 [Fragment 11C6]	0.38 ± 0.14	Destabilisation effects	53.78 ± 0.05 °C	1.16 ± 0.22		0.13	−0.27	strong cross-binding effects			n.i.	
Nc1nc(-c2ccc(O)cc2)cs1 [Fragment 10B6]	> 20	Destabilisation effects	51.27 ± 0.15 °C	0.56 ± 0.19	4.92 ± 4.19	2.33	−2.79					moderate binding affinity
